Results as given in publication PMC9654533, “Potent Alkaline Phosphatase Inhibitors, Pyrazolo-Oxothiazolidines: Synthesis, Biological Evaluation, Molecular Docking, and Kinetic Studies” (International Journal of Molecular Sciences, 2022).
Entries after “also recorded” stand apart in the source; their conditions may differ.

What was measured:
[1] = biological target: T1, calf intestinal alkaline phosphatase (CIAP) (Bos taurus, UniProt P19111); assay: Alkaline phosphatase inhibition assay (spectrophotometric, p-NPP substrate); assay type: biochemical; conditions: for IC50: CIAP, p-NPP substrate, pH 9.5, 37 °C, mean ± SEM
T1 sequence (P19111 20-533): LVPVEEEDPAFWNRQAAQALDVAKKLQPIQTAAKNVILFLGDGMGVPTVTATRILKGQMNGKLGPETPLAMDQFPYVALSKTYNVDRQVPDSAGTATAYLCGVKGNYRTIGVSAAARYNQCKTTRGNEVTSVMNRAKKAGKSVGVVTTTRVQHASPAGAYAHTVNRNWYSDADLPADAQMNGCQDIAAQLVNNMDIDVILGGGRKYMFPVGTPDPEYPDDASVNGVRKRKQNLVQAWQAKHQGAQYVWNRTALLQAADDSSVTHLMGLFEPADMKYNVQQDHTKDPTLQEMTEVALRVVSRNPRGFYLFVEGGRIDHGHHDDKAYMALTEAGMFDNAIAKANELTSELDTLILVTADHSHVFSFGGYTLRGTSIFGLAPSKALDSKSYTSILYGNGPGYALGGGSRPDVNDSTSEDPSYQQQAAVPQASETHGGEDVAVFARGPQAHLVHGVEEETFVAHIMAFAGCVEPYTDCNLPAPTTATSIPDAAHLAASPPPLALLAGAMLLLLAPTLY
Protocol: As previously mentioned, spectrophotometric analysis was used to evaluate the activity of calf intestinal alkaline phosphatase (CIAP). The reaction mixture contained 50 mM Tris-HCl buffer (5 mM MgCl2, 0.1 mM ZnCl2 pH 9.5), the 10 µL compound, and it was preincubated for 10 min by adding 5 µL of CIAP (0.025 U/mL). Then, 10 µL of a substrate (0.5 mM p-NPP (para nitrophenyl phosphate disodium salt)) was delivered to initiate the response, and therefore the assay mixture became incubated once more for 30 min at 37 °C. The change in absorbance of released p-nitrophenolate was monitored at 405 nm, using a 96-well microplate reader (Thermo Scientific Multiskan GO, USA). All the experiments were repeated three times in a triplicate manner. […] The inhibition activity was calculated according to the following equation: Inhibition (%)=[(Blank−Sample)/Blank]×100
For calculation of the IC50 values, 6–8 serial dilutions were used and the results examined using the non-linear regression analysis of GraphPad Prism 5 [69].

MTT cell viability assay = assay type: cell-based; conditions: human, MG-63 osteosarcoma cells, MG-63 cells
Protocol: The human osteosarcoma MG-63 cells were acquired from the Korean Cell Line Bank (Seoul, Korea). The MG-63 cell lines were incubated in the humidified atmosphere at 37 °C containing 5% CO2 and maintained in the DMEM (Sigma, St. Louis, MO, USA), supplemented with 10% fetal bovine serum (FBS, WELGENE, Korea) and 50 unit/mL penicillin (Sigma) and 50 μg/mL streptomycin (Sigma). The medium was completely renewed every two days. The synthesized compounds were completely dissolved in dimethyl sulfoxide (DMSO) and further diluted to various concentrations (0, 0.5, 1, 2, and 4 µM). The control groups were treated with the same amount of DMSO. MTT assay technique was applied to check the toxic effect of our compounds. The MG-63 cell lines were seeded onto 96-well plates at a density of 0.4 × 10^5 cells/well with the medium for 24 h. After reaching 50% density, the cells were exposed to synthesized target compounds at the dose of 0, 0.5, 1, 2, and 4 µM for 24 h in media. […] After 24 h, the cell sustained 100 μL DMEM containing of 0.5 mg/mL 3-(4,5-dimethylthiazol-2-yl)-2,5-diphenyltetrazolium bromide (MTT) at 37 °C for 4 h. Then, the purple formazan crystals were dissolved with 100 μL of buffer (10% SDS, 0.01 N HCl). Finally, the absorbance was measured at 570 nm using a microplate reader (Thermo Fisher, Waltham, MA, USA).

[2] = DPPH free radical scavenging assay; conditions: 100 µg/mL
Protocol: Free radical scavenging activity was determined by modifying the method by DPPH assay. The assay solution composed of the 100 μL of DPPH (150 μM) and 20 μL of the sample (100 μg/mL) was introduced to gain the final volume of each well up to 200 μL with methyl alcohol. Then, it was incubated in the dark at room temperature for the following half-hour. Ascorbic acid (Vitamin C) was used as a reference inhibitor. The measurements were performed by using a microplate reader (Thermo Scientific Multiskan GO, USA) at 517 nm. Each experiment was carried out in triplicate.

[3] = biological target: T1, calf intestinal alkaline phosphatase (CIAP); assay: Kinetic mechanism analysis (Lineweaver-Burk plot); assay type: biochemical
Protocol: The inhibitor (7g), and substrate p-NPP concentrations were used at 0.00, 0.023, 0.045 and 0.091 µM, 10, 5, 2.5, 1.25, 0.625 and 0.3125 mM, respectively. The pre-incubation time and other conditions were the same as those mentioned in the section on the CIAP assay. Maximal initial velocities were determined from the initial linear portion of absorbances up to 10 min after the addition of enzyme per minute interval. The inhibition type of the enzyme was assayed by the Lineweaver–Burk plot of inverse velocities (1/V) versus the inverse of substrate concentration 1/[S] mM^−1. The EI dissociation constant Ki was determined by a secondary plot of 1/V versus inhibitor concentration.

[4] = tested on: tissue-specific isozymes (PLALP, GCALP, and IALP) versus L/B/K ALPs; design: method as in PMID 2178806; conditions: cited from earlier work
ALP = ALP inhibitors; cited from earlier work

Row | SMILES | melting point | IC50 [1] | also measured
1 | CCOC(=O)C=C1SC(N2N=C(c3ccccc3)CC2c2ccc(Br)cc2)=NC1=O (stereo not drawn) [Compound 7a, Ethyl-2-(2-(5-(4-bromophenyl)-3-phenyl-4,5-dihydro-1H-pyrazol-1-yl)-4-oxothiazol-5(4H)-ylidene)acetate] | 242 to 244 °C | 0.053 ± 0.001 µM | –
2 | CCOC(=O)C=C1SC(N2N=C(c3ccccc3)CC2c2ccc(C)cc2)=NC1=O (stereo not drawn) [Compound 7b, Ethyl-2-(4-oxo-2-(3-phenyl-5-(p-tolyl)-4,5-dihydro-1H-pyrazol-1-yl)thiazol-5(4H)-ylidene)acetate] | 226 to 228 °C | 2.3 ± 0.151 µM | –
3 | CCOC(=O)C=C1SC(N2N=C(c3ccccc3)CC2c2ccc(OC)cc2)=NC1=O (stereo not drawn) [Compound 7c, Ethyl-2-(2-(5-(4-methoxyphenyl)-3-phenyl-4,5-dihydro-1H-pyrazol-1-yl)-4-oxothiazol-5(4H)-ylidene)acetate] | 236 to 238 °C | 0.198 ± 0.018 µM | –
4 | CCOC(=O)C=C1SC(N2N=C(c3ccccc3)CC2c2ccc(OCc3ccccc3)c(OC)c2)=NC1=O (stereo not drawn) [Compound 7d, Ethyl-2-(2-(5-(4-(benzyloxy)-3-methoxyphenyl)-3-phenyl-4,5-dihydro-1H-pyrazol-1-yl)-4-oxothiazol-5(4H)-ylidene)acetate] | 202 to 204 °C | 0.293 ± 0.039 µM | –
5 | CCOC(=O)C=C1SC(N2N=C(c3ccc(OC)cc3)CC2c2ccc(C)cc2)=NC1=O (stereo not drawn) [Compound 7e, Ethyl-2-(2-(3-(4-methoxyphenyl)-5-(p-tolyl)-4,5-dihydro-1H-pyrazol-1-yl)-4-oxothiazol-5(4H)-ylidene)acetate] | 208 to 210 °C | 0.228 ± 0.012 µM | viability at 24 h, 4 µM (MTT cell viability assay): ≤ 70%
6 | CCOC(=O)C=C1SC(N2N=C(c3ccc(OC)cc3)CC2c2ccc(Cl)cc2Cl)=NC1=O (stereo not drawn) [Compound 7f, Ethyl-2-(2-(5-(2,4-dichlorophenyl)-3-(4-methoxyphenyl)-4,5-dihydro-1H-pyrazol-1-yl)-4-oxothiazol-5(4H)-ylidene)acetate] | > 260 °C | 0.566 ± 0.048 µM | –
7 | CCOC(=O)C=C1SC(N2N=C(c3ccc(OC)cc3)CC2c2ccc(OCc3ccccc3)c(OC)c2)=NC1=O (stereo not drawn) [Compound 7g, Ethyl-2-(2-(5-(4-(benzyloxy)-3-methoxyphenyl)-3-(4-methoxyphenyl)-4,5-dihydro-1H-pyrazol-1-yl)-4-oxothiazol-5(4H)-ylidene)acetate] | 228 to 230 °C | 0.045 ± 0.004 µM | DPPH free radical scavenging (inhibition) [2]: 29.7%; fold more active than monopotassium phosphate (IC50 ratio) ([1]; versus standard reference monopotassium phosphate): 116 fold; Inhibition Type ([3]; Lineweaver-Burk plot, substrate p-NPP): non-competitively; also recorded: Non-Competitive; Vmax ([3]; inhibitor 7g concentration 0.023 µM): 0.0014 ΔA/Min; Vmax ([3]; inhibitor 7g concentration 0.045 µM): 0.0011 ΔA/Min; Vmax ([3]; inhibitor 7g concentration 0.091 µM): 0.0009 ΔA/Min; Ki ([3]; secondary plot of slope versus inhibitor concentration, read-out: Ki (EI dissociation constant)): 0.093 µM; Km ([3]; substrate p-NPP, inhibitor 7g concentration 0.023 µM): 500 µM; Km ([3]; substrate p-NPP, inhibitor 7g concentration 0.045 µM): 500 µM; Km ([3]; substrate p-NPP, inhibitor 7g concentration 0.091 µM): 500 µM
8 | CCOC(=O)C=C1SC(N2N=C(c3ccc(OC)cc3)CC2c2ccc(Br)cc2)=NC1=O (stereo not drawn) [Compound 7h, Ethyl-2-(2-(5-(4-bromophenyl)-3-(4-methoxyphenyl)-4,5-dihydro-1H-pyrazol-1-yl)-4-oxothiazol-5(4H)-ylidene)acetate] | 218 to 220 °C | 0.907 ± 0.041 µM | –
9 | CCOC(=O)C=C1SC(N2N=C(c3ccc(OC)cc3)CC2c2ccc(F)cc2)=NC1=O (stereo not drawn) [Compound 7i, Ethyl-2-(2-(5-(4-fluorophenyl)-3-(4-methoxyphenyl)-4,5-dihydro-1H-pyrazol-1-yl)-4-oxothiazol-5(4H)-ylidene)acetate] | 210 to 212 °C | 0.315 ± 0.017 µM | –
10 | CCOC(=O)C=C1SC(N2N=C(c3ccc(OC)cc3)CC2c2ccccc2)=NC1=O (stereo not drawn) [Compound 7j, Ethyl-2-(2-(3-(4-methoxyphenyl)-5-phenyl-4,5-dihydro-1H-pyrazol-1-yl)-4-oxothiazol-5(4H)-ylidene)acetate] | 167 to 169 °C | 0.434 ± 0.011 µM | viability at 24 h, 4 µM (MTT cell viability assay): ≤ 70%
11 | CCOC(=O)C=C1SC(N2N=C(c3ccc(OC)cc3)CC2c2ccc(OC)cc2)=NC1=O (stereo not drawn) [Compound 7k, Ethyl-2-(2-(3,5-bis(4-methoxyphenyl)-4,5-dihydro-1H-pyrazol-1-yl)-4-oxothiazol-5(4H)-ylidene)acetate] | 208 to 210 °C | 0.075 ± 0.005 µM | –
12 | CCOC(=O)C=C1SC(N2N=C(c3ccccc3)CC2c2ccc(Cl)cc2)=NC1=O (stereo not drawn) [Compound 7l, Ethyl-2-(2-(5-(4-chlorophenyl)-3-phenyl-4,5-dihydro-1H-pyrazol-1-yl)-4-oxothiazol-5(4H)-ylidene)acetate] | 251 to 253 °C | 0.051 ± 0.019 µM | –
13 | CCOC(=O)C=C1SC(N2N=C(c3ccc(OC)cc3)CC2c2ccc(Cl)cc2)=NC1=O (stereo not drawn) [Compound 7m, Ethyl-2-(2-(5-(4-chlorophenyl)-3-(4-methoxyphenyl)-4,5-dihydro-1H-pyrazol-1-yl)-4-oxothiazol-5(4H)-ylidene)acetate] | 220 to 222 °C | 0.302 ± 0.004 µM | viability at 24 h, 4 µM (MTT cell viability assay): ≤ 70%
14 | CCOC(=O)C=C1SC(N2N=C(c3ccccc3)CC2c2ccccc2)=NC1=O (stereo not drawn) [Compound 7n, Ethyl-2-(2-(3,5-diphenyl-4,5-dihydro-1H-pyrazol-1-yl)-4-oxothiazol-5(4H)-ylidene)acetate] | 216 to 218 °C | 2.99 ± 0.734 µM | –
15 | N[C@@H](Cc1ccccc1)C(=O)O [L-phenylalanine] | – | – | sensitivity of inhibition of tissue-specific isozymes (PLALP, GCALP, IALP) relative to L/B/K ALPs [4]: 30 times
16 | C#Cc1cccc(Nc2ncnc3cc(OCCOC)c(OCCOC)cc23)c1 [erlotinib, reference compound] | – | – | viability at 24 h, 2 µM (MTT cell viability assay; first three treatments (0.5, 1, 2 µM)): > 90%
17 | c1ccc([C@H]2CN3CCSC3=N2)cc1 [levamisole] | – | – | Ki (ALP): 16 µM
18 | Cn1c(=O)c2[nH]cnc2n(C)c1=O [theophylline] | – | – | Ki (ALP): 82 µM
